We go through 22 molecules from patent EP0024776A1, “4-Phenyl and 5-phenyl-1,4,5,6-tetrahydropyrimidine derivatives, pharmaceutical compositions containing said derivatives, and process for preparing said derivatives” (SYNTEX (U.S.A.) INC., priority 1979, dated 1981).

SMILES strings stand for the structures.

Data set [1] has as its system reserpine-induced hypothermia. The experiment in a line: Reversal of reserpine-induced hypothermia in mice (potential antidepressant activity). It counts as in vivo. The settings on record: Mus musculus, po; minimum effective dose, p.o., statistically significant reversal of hypothermia induced by reserpine 5mg/kg i.p.; body temperature 1-4 hours post-drug; read-out: MED. As to the method:
REVERSAL OF RESERPINE-INDUCED HYPOTHERMIA IN MICE
The assay was used to evaluate the potential antidepressant activity of compounds of this invention.
Male Swiss-Webster Institute for Cancer Research mice weighing 18-24g were utilized for these experiments. The mice, having been in holding quarters for a minimum of 5 days, were placed in plexi-glass cages 17cm by 20cm with sanicel bedding. Five of the 6 groups of 10 mice each, received reserpine, 5mg/kg, i.p. The reserpine (lOmg) was dissolved in 0.06ml glacial acetic acid and 20ml water. The sixth group was not pretreated. Two hours later the mice were dosed with either water or test compound at various doses. The group which had not received the reserpine pretreatment was also dosed with water; consequently a postive and a negative control group were present. The test compounds were administered orally (p.o.) in logarithmically spaced doses.
One hour after the oral dosing, body temperatures were taken from 8 mice from each group utilizing a Yellow Springs-Telethermometer unit. Repeated determinations of body temperature occured at 2, 3 and 4 hours post-drug.
The percent reversal of the reserpine-induced hypothermia was determined according to the formula: [formula] and subjected to an analysis of variance (X = average body temperature of mice from the group). Statistically significant reversal of the reserpine-induced hypothermia was used as a criterion for determining the minimum effective dose (MED) of the compound.

The subject of the next data set is jaw opening reflex. The experiment in a line: Centrally acting skeletal muscle relaxant assay - cat linguomandibular reflex preparation. It is filed as in vivo. The settings on record: Felis catus, iv, anesthetized cats; percent reduction of the jaw opening reflex. The protocol:
This assay is used to assess the centrally acting skeletal muscle relaxant properties of compounds of this invention.
Mongrel cats weighing 2-Skg were anesthetized with phenobarbital sodium, 180mg/kg, i.p. The anesthetized cat was placed in a stereotaxic headholder, shaved, and the femoral artery and vein were cannulated. The cannula from the fermoral artery was connected to a Statham Model P-23 AC Transducer in order to monitor blood pressure. The femoral vein was utilized for the administration of drugs.
The cat was placed in a prone position and two electrodes, consisting of wound clips soldered to wires, were attached bilaterally to the base of the tongue. These leads were then connected to a Grass S8 stimulator. A Grass FT-03 Transducer was placed beneath the jaw. […] Signals from the transducers were recorded on a Beckman Polygraph.
The stimulator was set to deliver single pulses of 2.5msec duration. […] Once the response had ben determined to be stable, drug solution was administered i.v. in logarithmically spaced doses. […]
The percent reduction of the jaw opening reflex was utilized for determining the activity of the drug. Comparisons of the relative block of the reflex, the steepness of the dose response curve, and the cardiovascular sequel were evaluated and an ED50 determined.

The next data set deals with tonic extensor seizure. The experiment in a line: Anticonvulsant activity - maximal electroshock test. It counts as in vivo, mice. As to conditions: Mus musculus, ip, 0.25 h; i.p. fifteen minutes prior to transcorneal electroshock (50 mamp. 0.2sec); antagonism of tonic extensor seizure. The protocol: ANTICONVULSANT ACTIVITY - MAXIMAL ELECTROSHOCK TEST This assay was used to evaluate the anticonvulsant activity of compounds of this invention. Groups of 10 male Hilltop ICR mice were utilized for these experiments. At fifteen minutes prior to testing, drug or vehicle was administered intraperitoneally (i.p.). At the appropriate time the mice were subjected to a transcorneal electroshock generated by a stimulator (Woodbury, L.A. and Davenport, V.D.: Design and Use Of A New Electroshock Seizure Apparatus And Analysis Of Factors Altering Seizure Threshold And Pattern. Arch. Intern. Pharmacodyn. Ther. 92: 97-107,1952). The shock (50 […]) elicited three types of seizures: tonic extension, tonic flexion and clonic seizures. For the purposes of this test, the antagonism of the tonic extensor seizure was utilized as an endpoint. The quantal data accumulated from several doses of a test compound were utilized to determine an ED50 (Litchfield, J.F. and Wilcoxon, F.: A Simplified Method of Evaluating Dose-effect Experiments). J. Pharmacol. Exp. Ther. 96: 99-113, 1949).

Data set [2] can be described thus: Acute intraperitoneal toxicity and behavior in mice (Example 14). As to conditions: mouse, in vivo, ip.
Another data set concerns male mice (ICR-Simonsen). The data set is described as above. The settings on record: for No. of Deaths: 5 mice.

For orientation: ED50 means the dose that gives a 50% effect, or the effect in half of the subjects. What is called LD50 is the dose at which mortality reaches 50%. A higher LD50 goes with a less toxic substance.

Take `CC(C)OC(=O)NC1=NCC(c2ccccc2)CN1` (centres unmarked) [5|H|H|H|(CH3)2CHOC(O)-, 2-isopropoxycarbonylamino-5-phenyl-1,4,5,6-tetrahydropyrimidine]: the minimal effective dose in data set [1] came out at 0.04 mg/kg.
Turning to `COC(=O)NC1=NCC(c2cccc(OC)c2)CN1` (centres unmarked) [5|H|3-MeO|H|CH3OC(O)-, 2-methoxycarbonylamino-5-(3-methoxyphenyl)-1,4,5,6-tetrahydropyrimidine], the ED50 in the data set on jaw opening reflex was 7 mg/kg. For the same molecule, the minimal effective dose in data set [1] stood at 10 mg/kg.
`NC1=NC(c2ccccc2)CCN1` (centres unmarked) [4|H|H|H|H, 2-amino-4-phenyl-1,4,5,6-tetrahydropyrimidine]: the minimal effective dose in data set [1] was determined as 10 mg/kg.
`COC(=O)NC1=NCC(c2ccc(F)cc2)CN1` (centres unmarked) [5|H|4-F|H|CH3OC(O)-, 2-methoxycarbonylamino-5-(4-fluorophenyl)-1,4,5,6-tetrahydropyrimidine] came in with an ED50 in the data set on tonic extensor seizure of 100 mg/kg. Moreover, in data set [1], the minimal effective dose worked out at 0.15 mg/kg.
As to `COC(=O)NC1=NCC(c2ccccc2)CN1C` (stereo not drawn) [5|H|H|CH3|CH3OC(O)-, l-Methyl-2-methoxycarbonylamino-5-phenyl-1,4,5,6-tetrahydropyrimidine], the minimal effective dose in data set [1] turned out to be 0.04 mg/kg.
The same measure, in the same setting: as for `COC(=O)NC1=NC(c2ccc(F)cc2)CCN1` (centres unmarked) [4|H|4-F|H|CH3COC(O)-, 2-methoxycarbonylamino-4-(4-fluorophenyl)-1,4,5,6-tetrahydropyrimidine], the figure is 1 mg/kg; as for `CCCOC(=O)NC1=NCC(c2cccc(Br)c2)CN1` (centres unmarked) [5|H|3-Br|H|CH3(CH)2OC(O)-, 2-n-propoxycarbonylamino-5-(3-bromophenyl)-1,4,5,6-tetrahydropyrimidine], 1 mg/kg.
With `COC(=O)NC1=NCC(c2ccc(Cl)cc2Cl)CN1` (centres unmarked) [5|2-Cl|4-Cl|H|CH3OC(O)-, 2-methoxycarbonylamino-5-(2,4-dichlorophenyl)-1,4,5,6-tetrahydropyrimidine], in the data set on jaw opening reflex, the ED50 was 25 mg/kg. In addition, the minimal effective dose in data set [1] is 1 mg/kg.
With `COC(=O)NC1=NCC(c2ccccc2)CN1.O=C(O)/C=C\C(=O)O` (centres unmarked) [2-Methoxycarbonylamino-5-phenyl-1,4,5,6-tetrahydropyrimidine, maleate], the LD50 in data set [2] amounted to 26.5 mg/kg. In addition, the “No. of Deaths” value in the data set on male mice (ICR-Simonsen) (Dose 10 mg/kg i.p.) is listed as 0; in the data set with male mice (ICR-Simonsen) (Dose 15 mg/kg i.p.) it was 0; in the data set with male mice (ICR-Simonsen) (Dose 20 mg/kg i.p.), 0; in the data set on male mice (ICR-Simonsen) (Dose 25 mg/kg i.p.), 0; in the data set on male mice (ICR-Simonsen) (Dose 27.5 mg/kg i.p.), 4; in the data set on male mice (ICR-Simonsen) (Dose 30 mg/kg i.p.) it was 5. In addition, the onset of effects result in the data set on male mice (ICR-Simonsen) (after drug administration, i.p., mice) was “less than five minutes”. Further, in the data set on male mice (ICR-Simonsen) (after drug, i.p., mice), the “surviving animals appeared normal” value fell in the range of 90 to 120 min. The Behavioral effects observed entry in the data set on male mice (ICR-Simonsen) (i.p., 10-30 mg/kg, observed for 2 hours post drug) is “decreased motor activity, ataxia exophthalmia piloerection increased induced activity, dysporea (increased depth and decreased rate of respiration), lacrimation twitching, moderate clonic convulsions and death”.
Regarding `COC(=O)NC1=NC(c2cccc(OC)c2)CCN1` (centres unmarked) [4|H|3-CH3O|H|CH3OC(O)], the minimal effective dose in data set [1] amounted to 10 mg/kg.
Turning to `NC1=NCC(c2ccccc2)CN1` (centres unmarked) [5|H|H|H|H, 2-amino-5-phenyl-1,4,5,6-tetrahydropyrimidine], the minimal effective dose in data set [1] is 0.01 mg/kg.
`COC(=O)NC1=NC(c2ccccc2C(F)(F)F)CCN1` (centres unmarked) [4|H|2-CF3|H|CH3OC(O)-, 2-methoxycarbonylamino-4-(2-trifluoromethylphenyl)-1,4,5,6-tetrahydropyrimidine] registered an ED50 in the data set with tonic extensor seizure of 44 mg/kg. In addition, the minimal effective dose in data set [1] came to 1 mg/kg.
As for `COC(=O)NC1=NCC(c2ccccc2Cl)CN1` (centres unmarked) [5|H|2-Cl|H|CH3OC(O)-, 2-methoxycarbonylamino-5-(2-chlorophenyl)-1,4,5,6-tetrahydropyrimidine], in the data set with tonic extensor seizure, the ED50 came out at 42 mg/kg. In addition, the minimal effective dose in data set [1] came out at 10 mg/kg.
With `COC(=O)NC1=NCC(c2c(Cl)cccc2Cl)CN1` (centres unmarked) [5|2-Cl|6-Cl|H|CH3OC(O)-, 2-methoxycarbonylamino-5-(2,6-dichlorophenyl)-1,4,5,6-tetrahydropyrimidine], in data set [1], the minimal effective dose worked out at 0.15 mg/kg.
Take `COC(=O)NC1=NCC(c2ccc(C(C)C)cc2)CN1` (centres unmarked) [5|H|4-(CH3)2CH-|H|CH3OC(O), 2-methoxycarbonylamino-5-(4-isopropylphenyl)-1,4,5,6-tetrahydropyrimidine]: the ED50 in the data set with tonic extensor seizure is 55 mg/kg.
With `COC(=O)NC1=NC(c2ccccc2)CCN1` (centres unmarked) [4|H|H|H|CH3OC(O)-, 2-methoxycarbonylamino-4-phenyl-1,4,5,6-tetrahydropyrimidine], the minimal effective dose in data set [1] was found to be 2.5 mg/kg.
Take `CCOC(=O)NC1=NCC(c2ccccc2)CN1` (centres unmarked) [5|H|H|H|CH3CH2OC(O)-, 2-ethoxycarbonylamino-5-phenyl-1,4,5,6-tetrahydropyrimidine]: in data set [1], the minimal effective dose was 0.04 mg/kg.
In turn, `NC1=NCC(c2cccc(Br)c2)CN1` (centres unmarked) [5|H|3-Br|H|H-, 2-amino-5-(3-bromophenyl)-1,4,5,6-tetrahydropyrimidine] registered an ED50 with tonic extensor seizure of 47 mg/kg. Moreover, the minimal effective dose in data set [1] was 10 mg/kg.
Turning to `COC(=O)NC1=NCC(c2cccc(Br)c2)CN1` (centres unmarked) [5|H|3-Br|H|CH3OC(O)-, 2-methoxycarbonylamino-5-(3-bromophenyl)-1,4,5,6-tetrahydropyrimidine], the minimal effective dose in data set [1] was determined as 1 mg/kg.
Consider `CC(C)OC(=O)NC1=NCC(c2c(Cl)cccc2Cl)CN1` (centres unmarked) [5|2-Cl|6-Cl|H|(CH3)2CHOC(O)-, 2-i-propoxycarbonylamino-5-(2,6-dichlorophenyl)-1,4,5,6-tetrahydropyrimidine], for which, in data set [1], the minimal effective dose is 1 mg/kg.
For the molecule `COC(=O)NC1=NCC(c2ccccc2)CN1` (centres unmarked) [5|H|H|H|CH3OC(O)-, 2-methoxycarbonylamino-5-phenyl-1,4,5,6-tetrahydropyrimidine], in data set [1], the minimal effective dose was 0.0006 mg/kg.
`CCCOC(=O)NC1=NC(c2ccccc2)CCN1` (centres unmarked) [2-n-propoxycarbonylamino-4-phenyl-1,4,5,6-tetrahydropyrimidine]: in the data set on tonic extensor seizure, the ED50 turned out to be 30 mg/kg. Moreover, the minimal effective dose in data set [1] was 10 mg/kg.
